The source of these data is patent US20080234262A1 (Wyeth, priority 2007, published 2008).

One assay has as its target PI3K (Homo sapiens, UniProt P42336). As to the kind of experiment: Fluorescence polarization assay for PI3K.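 Also: PI3K kinase reaction on PIP2 with ATP, 30-60 min, product sensed by GST-GRP with red probe in fluorescence polarization (mP), controls without enzyme and at zero time.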 Format: biochemical. The following applies: PI3Kα; read-out: PI3Kα IC50. Background: Polarisation of emitted light reports the rotation of a fluorescent probe.
Another assay has as its system breast line MDA468. As to the kind of experiment: In vitro cell culture growth assay (MTS), MDA468. The following applies: Homo sapiens, 72 h, MDA468 cells, three days after drug treatment. Format: cell-based, human. Summed up:
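Three-day drug treatment starting 1 day post-plating; viable cells quantified via MTS metabolism (A490); effect normalised to in-plate vehicle controls as % growth.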

The subject of the next assay is prostate line LNCap. As to the kind of experiment: In vitro cell culture growth assay (MTS), LNCap.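 Also: viable cell density read by absorbance at 490 nm, growth expressed as percent of vehicle-treated cells on the same plate.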 The format is cell-based, human. The following applies: Homo sapiens, LNCaP, 72 h, LNCap cells, three days after drug treatment.

Structures are written as SMILES.

PI3K, sequence (P42336 whole entry): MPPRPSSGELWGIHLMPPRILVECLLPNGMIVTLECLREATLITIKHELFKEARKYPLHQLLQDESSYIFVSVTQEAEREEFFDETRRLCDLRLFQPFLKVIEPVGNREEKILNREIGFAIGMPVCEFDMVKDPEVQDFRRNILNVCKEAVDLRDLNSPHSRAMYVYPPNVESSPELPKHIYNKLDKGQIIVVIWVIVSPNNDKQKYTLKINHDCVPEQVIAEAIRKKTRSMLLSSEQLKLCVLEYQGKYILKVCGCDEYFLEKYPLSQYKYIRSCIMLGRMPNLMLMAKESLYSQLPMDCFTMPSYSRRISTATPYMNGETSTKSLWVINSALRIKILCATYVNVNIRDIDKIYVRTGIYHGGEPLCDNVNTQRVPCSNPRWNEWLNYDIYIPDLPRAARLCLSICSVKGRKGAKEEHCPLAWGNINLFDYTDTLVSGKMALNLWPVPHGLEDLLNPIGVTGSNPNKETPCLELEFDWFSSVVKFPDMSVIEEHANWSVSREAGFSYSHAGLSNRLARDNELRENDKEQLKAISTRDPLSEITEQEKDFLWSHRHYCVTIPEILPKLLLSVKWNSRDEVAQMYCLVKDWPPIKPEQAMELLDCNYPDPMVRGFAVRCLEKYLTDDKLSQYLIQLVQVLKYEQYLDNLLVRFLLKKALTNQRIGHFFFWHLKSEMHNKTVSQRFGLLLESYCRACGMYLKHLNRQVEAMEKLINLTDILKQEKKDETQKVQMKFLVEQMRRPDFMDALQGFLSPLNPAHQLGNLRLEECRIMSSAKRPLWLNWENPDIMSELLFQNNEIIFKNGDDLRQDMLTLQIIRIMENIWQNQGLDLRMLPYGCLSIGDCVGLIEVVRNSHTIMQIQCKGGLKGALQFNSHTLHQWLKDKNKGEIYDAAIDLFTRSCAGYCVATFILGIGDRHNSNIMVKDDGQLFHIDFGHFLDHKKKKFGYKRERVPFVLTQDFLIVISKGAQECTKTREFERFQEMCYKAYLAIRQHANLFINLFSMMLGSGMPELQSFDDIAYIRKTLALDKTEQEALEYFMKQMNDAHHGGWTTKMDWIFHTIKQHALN
PI3K, sequence (P27986 whole entry partner): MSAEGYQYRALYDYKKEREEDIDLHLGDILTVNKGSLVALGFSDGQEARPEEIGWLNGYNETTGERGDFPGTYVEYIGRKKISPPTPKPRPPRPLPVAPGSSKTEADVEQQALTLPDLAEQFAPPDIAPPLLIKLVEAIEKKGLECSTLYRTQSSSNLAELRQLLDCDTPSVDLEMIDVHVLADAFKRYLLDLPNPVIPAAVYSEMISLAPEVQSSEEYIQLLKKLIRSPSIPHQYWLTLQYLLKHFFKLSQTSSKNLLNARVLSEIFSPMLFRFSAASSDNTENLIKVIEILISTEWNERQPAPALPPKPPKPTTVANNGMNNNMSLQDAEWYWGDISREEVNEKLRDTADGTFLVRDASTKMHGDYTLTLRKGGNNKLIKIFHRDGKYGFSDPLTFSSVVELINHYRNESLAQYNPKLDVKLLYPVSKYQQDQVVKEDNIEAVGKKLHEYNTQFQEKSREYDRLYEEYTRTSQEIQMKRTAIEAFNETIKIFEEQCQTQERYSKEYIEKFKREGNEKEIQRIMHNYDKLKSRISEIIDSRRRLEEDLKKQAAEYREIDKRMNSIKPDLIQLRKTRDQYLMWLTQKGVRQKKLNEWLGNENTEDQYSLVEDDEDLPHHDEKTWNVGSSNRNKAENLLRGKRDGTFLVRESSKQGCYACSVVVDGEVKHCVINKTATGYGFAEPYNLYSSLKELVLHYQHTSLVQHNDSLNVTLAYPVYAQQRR

Consider `O=C(CCN1CCCCC1)Nc1ccc(-c2nc(N3CCOCC3)c3cnn(-c4ccccc4)c3n2)cc1` [Compound 137], for which the half-inhibitory concentration (IC50) (in general, the concentration that inhibits the measured activity by half) on PI3K came to 100 nM; in the assay with breast line MDA468 it was 1200 nM; with prostate line LNCap, 2800 nM.
The like results for `c1ccc(-n2ncc3c(N4CCOCC4)nc(-c4ccc(CN5CCOCC5)cc4)nc32)cc1` [Compound 130] were, in that order, 822 nM, 60000 nM and 60000 nM.
In the case of `O=C(NO)Nc1ccc(-c2nc(N3CCOCC3)c3cnn(C4CCN(C(=O)c5cccnc5)CC4)c3n2)cc1` [Compound 550, 1-hydroxy-3-(4-{4-morpholin-4-yl-1-[1-(pyridin-3-ylcarbonyl)piperidin-4-yl]-1H-pyrazolo[3,4-d]pyrimidin-6-yl}phenyl)urea], the results for the IC50 at PI3K, in the assay with breast line MDA468 and in the assay with prostate line LNCap were 604 nM, 7200 nM and 10100 nM, respectively.
The like results for `CC(C)OC(=O)N1CCC(n2ncc3c(N4CCOCC4)nc(-c4ccc(NC(=O)Nc5cccnc5)cc4)nc32)CC1` [Compound 838, isopropyl 4-(4-morpholin-4-yl-6-{4-[(pyridin-3-ylcarbamoyl)amino]phenyl}-1H-pyrazolo[3,4-d]pyrimidin-1-yl)piperidine-1-carboxylate] were, in that order, 74 nM, 150 nM and 28 nM.
On to `O=C(Nc1ccc(-c2nc(N3CCOCC3)c3cnn(C4CCN(C(=O)OCc5ccccc5)CC4)c3n2)cc1)Nc1cccnc1` [Compound 881, benzyl 4-(4-morpholin-4-yl-6-{4-[(pyridin-3-ylcarbamoyl)amino]phenyl}-1H-pyrazolo[3,4-d]pyrimidin-1-yl)piperidine-1-carboxylate], for which the 50% inhibitory concentration (IC50) at PI3K turned out to be 7 nM; in the assay with breast line MDA468, 300 nM; in the assay with prostate line LNCap, 60 nM.
The like results for `CNC(=O)Nc1ccc(-c2nc(N3CCOCC3)c3cnn(C4CCN(C(=O)c5ccccc5OC)CC4)c3n2)cc1` [Example 365, 1-(4-{1-[1-(2-methoxybenzoyl)piperidin-4-yl]-4-morpholin-4-yl-1H-pyrazolo[3,4-d]pyrimidin-6-yl}phenyl)-3-methylurea] were, in that order, 82 nM, 300 nM and 27 nM.
The like results for `CNC(=O)Nc1ccc(-c2nc(N3CCOCC3)c3cnn(C4CCN(C(=O)c5ccc(Br)cc5)CC4)c3n2)cc1` [Example 360, 1-(4-{1-[1-(4-bromobenzoyl)piperidin-4-yl]-4-morpholin-4-yl-1H-pyrazolo[3,4-d]pyrimidin-6-yl}phenyl)-3-methylurea] were, in that order, 35 nM, 200 nM and 52 nM.
Take `COc1cncc(-c2nc(N3CCOCC3)c3cnn(C)c3n2)c1` [Compound 11]: the concentration for half-maximal inhibition (IC50) at PI3K stood at 279 nM; in the assay on breast line MDA468, 5000 nM; in the assay on prostate line LNCap it was 4700 nM.
For `CC(C)OC(=O)N1CCC(n2ncc3c(N4CCOCC4)nc(-c4ccc(NC(=O)Nc5ccccn5)cc4)nc32)CC1` [Compound 837, isopropyl 4-(4-morpholin-4-yl-6-{4-[(pyridin-2-ylcarbamoyl)amino]phenyl}-1H-pyrazolo[3,4-d]pyrimidin-1-yl)piperidine-1-carboxylate], the results for the 50% inhibitory concentration (IC50) on PI3K, in the assay with breast line MDA468 and with prostate line LNCap were 12000 nM, 4600 nM and 2500 nM, respectively.
For `CNC(=O)Nc1ccc(-c2nc(N3CCOCC3)c3cnn(C4CCN(C(=O)c5ccc(C#N)cc5)CC4)c3n2)cc1` [Compound 614, 1-(4-{1-[1-(4-cyanobenzoyl)piperidin-4-yl]-4-morpholin-4-yl-1H-pyrazolo[3,4-d]pyrimidin-6-yl}phenyl)-3-methylurea], the IC50 on PI3K was 89 nM; in the assay on breast line MDA468, 220 nM; in the assay on prostate line LNCap it was 150 nM.
The like results for `C=CC(=O)N1CCC(n2ncc3c(N4CCOCC4)nc(-c4ccc(NC(=O)OC)cc4)nc32)CC1` [Compound 458, methyl {4-[1-(1-acryloylpiperidin-4-yl)-4-morpholin-4-yl-1H-pyrazolo[3,4-d]pyrimidin-6-yl]phenyl}carbamate] were, in that order, 1980 nM, 1200 nM and 930 nM.
As to `C=CCONC(=O)Nc1ccc(-c2nc(N3CCOCC3)c3cnn(-c4ccccc4)c3n2)cc1` [Compound 542, 1-(allyloxy)-3-[4-(4-morpholin-4-yl-1-phenyl-1H-pyrazolo[3,4-d]pyrimidin-6-yl)phenyl]urea], the IC50 at PI3K was found to be 896 nM; in the assay on breast line MDA468, 60000 nM; in the assay with prostate line LNCap it was 3000 nM.
The corresponding values for `c1ccc2cc(-c3nc(N4CCOCC4)c4cnn(C5CCNCC5)c4n3)ccc2c1` [Example 44] are 11000 nM, 1400 nM and 1700 nM.
The like results for `Cc1ccncc1C(=O)N1CCC(n2ncc3c(N4CCOCC4)nc(-c4ccc5[nH]ccc5c4)nc32)CC1` [Example 199, 6-(1H-indol-5-yl)-1-{1-[(4-methylpyridin-3-yl)carbonyl]piperidin-4-yl}-4-morpholin-4-yl-1H-pyrazolo[3,4-d]pyrimidine] were, in that order, 2940 nM, 1800 nM and 450 nM.
The corresponding values for `CNC(=O)N1CCC(n2ncc3c(N4CCOCC4)nc(-c4ccc(NC(=O)OC)cc4)nc32)CC1` [Compound 813, methyl (4-{1-[1-(methylcarbamoyl)piperidin-4-yl]-4-morpholin-4-yl-1H-pyrazolo[3,4-d]pyrimidin-6-yl}phenyl)carbamate] are 1960 nM, 4400 nM and 2250 nM.
`C=CC(=O)Nc1ccc(-c2nc(N3CCOCC3)c3cn[nH]c3n2)cc1` [Compound 526, N-[4-(4-morpholin-4-yl-1H-pyrazolo[3,4-d]pyrimidin-6-yl)phenyl]acrylamide]: the IC50 stood at 601 nM at PI3K, 7000 nM with breast line MDA468 and 3400 nM in the assay on prostate line LNCap.
For `CNC(=O)Nc1ccc(-c2nc(N3CCOCC3)c3cnn(C4CCN(C(=O)OCCBr)CC4)c3n2)cc1` [Compound 804, 2-bromoethyl 4-(6-{4-[(methylcarbamoyl)amino]phenyl}-4-morpholin-4-yl-1H-pyrazolo[3,4-d]pyrimidin-1-yl)piperidine-1-carboxylate], the IC50 turned out to be 140 nM on PI3K, 800 nM in the assay on breast line MDA468 and 700 nM with prostate line LNCap.
Regarding `CNC(=O)Nc1ccc(-c2nc(N3CCOCC3)c3cnn(C4CCN(C(=O)OCC(C)(C)C)CC4)c3n2)cc1` [Compound 876, 2,2-dimethylpropyl 4-(6-{4-[(methylcarbamoyl)amino]phenyl}-4-morpholin-4-yl-1H-pyrazolo[3,4-d]pyrimidin-1-yl)piperidine-1-carboxylate], the concentration for half-maximal inhibition (IC50) on PI3K was determined as 87 nM; in the assay on breast line MDA468 it was 350 nM; with prostate line LNCap, 110 nM.
The corresponding values for `CNC(=O)Nc1ccc(-c2nc(N3CCOCC3)c3cnn(C4CCN(C(=O)c5cccc(C(F)(F)F)c5)CC4)c3n2)cc1` [Compound 605, 1-methyl-3-[4-(4-morpholin-4-yl-1-{1-[3-(trifluoromethyl)benzoyl]piperidin-4-yl}-1H-pyrazolo[3,4-d]pyrimidin-6-yl)phenyl]urea] are 76 nM, 160 nM and 45 nM.
With `Nc1ncc(-c2nc(N3CCOCC3)c3cnn(C4CCN(C(=O)c5cccnc5)CC4)c3n2)cn1` [Example 215, 5-{4-morpholin-4-yl-1-[1-(pyridin-3-ylcarbonyl)piperidin-4-yl]-1H-pyrazolo[3,4-d]pyrimidin-6-yl}pyrimidin-2-amine], the figures for the IC50 at PI3K, in the assay with breast line MDA468 and in the assay on prostate line LNCap were 37 nM, 1300 nM and 650 nM, respectively.
The like results for `COc1cccc(C(=O)Nc2ccc(-c3nc(N4CCOCC4)c4cnn(C5CCCCO5)c4n3)cc2)c1` (stereo not drawn) [Compound 519, 3-methoxy-N-{4-[4-morpholin-4-yl-1-(tetrahydro-2H-pyran-2-yl)-1H-pyrazolo[3,4-d]pyrimidin-6-yl]phenyl}benzamide] were, in that order, 8320 nM, greater than 60000 nM and 1950 nM.
Take `Clc1ncccc1CN1CCC(n2ncc3c(N4CCOCC4)nc(-c4ccc5[nH]ccc5c4)nc32)CC1` [Compound 175]: the IC50 amounted to 462 nM at PI3K, 2000 nM with breast line MDA468 and 1100 nM in the assay on prostate line LNCap.
The corresponding values for `CNC(=O)Nc1ccc(-c2nc(N3CCOCC3)c3cnn(C4CCN(C(=O)c5ccccc5)CC4)c3n2)cc1` [Compound 580, 1-{4-[1-(1-benzoylpiperidin-4-yl)-4-morpholin-4-yl-1H-pyrazolo[3,4-d]pyrimidin-6-yl]phenyl}-3-methylurea] are 63 nM, 27 nM and less than 27 nM.
The like results for `CNC(=O)Nc1ccc(-c2nc(N3CCOCC3)c3cnn(C4CCN(C(C)=O)CC4)c3n2)cc1` [Example 472, 1-{4-[1-(1-acetylpiperidin-4-yl)-4-morpholin-4-yl-1H-pyrazolo[3,4-d]pyrimidin-6-yl]phenyl}-3-methylurea] were, in that order, 225 nM, 1200 nM and 800 nM.
The corresponding values for `c1ccc(CN2CCC(n3ncc4c(N5CCOCC5)nc(-c5cn[nH]c5)nc43)CC2)cc1` [Compound 189] are 765 nM, 8300 nM and 3200 nM.
Consider `O=C(Nc1ccccc1)Nc1ccc(-c2nc(N3CCOCC3)c3cnn(C4CCN(Cc5cccnc5)CC4)c3n2)cc1F` [Example 351, 1-(2-fluoro-4-{4-morpholin-4-yl-1-[1-(pyridin-3-ylmethyl)piperidin-4-yl]-1H-pyrazolo[3,4-d]pyrimidin-6-yl}phenyl)-3-phenylurea], for which the half-inhibitory concentration (IC50) on PI3K was 41 nM; in the assay with breast line MDA468, 400 nM; in the assay with prostate line LNCap it was 70 nM.
